The target in one experiment is T1, EGFR tyrosine kinase (Homo sapiens, UniProt P00533).
T1 construct: purchased Sigma Aldrich
Nature of the experiment: HTRF assay, inhibition of EGFR tyrosine kinase. It counts as biochemical. To be noted: HTRF method. As for the experimental part: The activity of inhibitory against the kinase of the test compound is expressed by IC50. The assays are performed by Homogeneous time-resolved fluorescence (HTRF) method which is as follows: a series of synthesized analogues with gradient concentration are incubated for 5 minutes in enzymatic solution with specific concentration (for EGFR) at room temperature. Then proper amount of substrate and ATP are added into the reaction mixture to start the enzyme reaction. The assays of the specific concentration of compound is measured by Flexstation III of Molecular device company after the stop buffer and detecting liquid are added to the enzyme reaction system and hatch at room temperature for 1 hour. And the activity of inhibitory against the kinase of the test compound with different concentration will be calculated, then according to the 4-parameter equation, fit the inhibitory activity of the test compound with different concentration to get the IC50. EGFR is purchased from Sigma Aldrich. The HTRF KinEASE-TK is purchased from Cisbio Bioassays. ATP is purchased from Sigma Aldrich.

The test system of the next experiment is A431 cell. In words: Proliferation inhibition, A431 cells (CellTiter-Glo). It counts as cell-based. The following applies: Homo sapiens, A-431, 48 hours. How it is done: (§1) This example is to determine the proliferation inhibitory activity against wide type of high expression cell lines A431 of EGFR and mutant cell lines NCI-H1975^L858RT790M, the proliferation inhibitory activity in cell-based level of compound is expressed by IC50. The test method is as follows: both cell lines are purchased from American type culture collection (ATCC). The cells are seeded in a white and opaque 384-well culture plate with a proper concentration (A431: 20000 cells/ml medium; H1975: 15000 cells/ml medium), cultured at 37° C. with 5% CO2 for 24 hrs, a series of medicine with gradient concentration is added, generally 10 concentrations, cultured for another 48 hours under the previous conditions. The assays of the proliferation inhibitory activity against the A431 and H1975 cell of the test compounds are performed by the CellTiter-Glo Luminescent Cell Viability Assay and calculate the proliferation inhibitory activity of compound with different concentrations. CellTiter-Glo Luminescent Cell Viability Assay is purchased from Promega. Fit the data of proliferation inhibitory activity against A431 and H1975 of compounds with different concentrations with 4-parameter equation.

The subject of experiment [1] is NCI-H1975 L858R T790M cell. Nature of the experiment: Proliferation inhibition, H1975 cells (CellTiter-Glo). It counts as cell-based. To be noted: Homo sapiens, 48 hours. How it is done: as §1

A value given as a limit tells only on which side of the number the result lay.

T1 sequence (P00533 25-1210): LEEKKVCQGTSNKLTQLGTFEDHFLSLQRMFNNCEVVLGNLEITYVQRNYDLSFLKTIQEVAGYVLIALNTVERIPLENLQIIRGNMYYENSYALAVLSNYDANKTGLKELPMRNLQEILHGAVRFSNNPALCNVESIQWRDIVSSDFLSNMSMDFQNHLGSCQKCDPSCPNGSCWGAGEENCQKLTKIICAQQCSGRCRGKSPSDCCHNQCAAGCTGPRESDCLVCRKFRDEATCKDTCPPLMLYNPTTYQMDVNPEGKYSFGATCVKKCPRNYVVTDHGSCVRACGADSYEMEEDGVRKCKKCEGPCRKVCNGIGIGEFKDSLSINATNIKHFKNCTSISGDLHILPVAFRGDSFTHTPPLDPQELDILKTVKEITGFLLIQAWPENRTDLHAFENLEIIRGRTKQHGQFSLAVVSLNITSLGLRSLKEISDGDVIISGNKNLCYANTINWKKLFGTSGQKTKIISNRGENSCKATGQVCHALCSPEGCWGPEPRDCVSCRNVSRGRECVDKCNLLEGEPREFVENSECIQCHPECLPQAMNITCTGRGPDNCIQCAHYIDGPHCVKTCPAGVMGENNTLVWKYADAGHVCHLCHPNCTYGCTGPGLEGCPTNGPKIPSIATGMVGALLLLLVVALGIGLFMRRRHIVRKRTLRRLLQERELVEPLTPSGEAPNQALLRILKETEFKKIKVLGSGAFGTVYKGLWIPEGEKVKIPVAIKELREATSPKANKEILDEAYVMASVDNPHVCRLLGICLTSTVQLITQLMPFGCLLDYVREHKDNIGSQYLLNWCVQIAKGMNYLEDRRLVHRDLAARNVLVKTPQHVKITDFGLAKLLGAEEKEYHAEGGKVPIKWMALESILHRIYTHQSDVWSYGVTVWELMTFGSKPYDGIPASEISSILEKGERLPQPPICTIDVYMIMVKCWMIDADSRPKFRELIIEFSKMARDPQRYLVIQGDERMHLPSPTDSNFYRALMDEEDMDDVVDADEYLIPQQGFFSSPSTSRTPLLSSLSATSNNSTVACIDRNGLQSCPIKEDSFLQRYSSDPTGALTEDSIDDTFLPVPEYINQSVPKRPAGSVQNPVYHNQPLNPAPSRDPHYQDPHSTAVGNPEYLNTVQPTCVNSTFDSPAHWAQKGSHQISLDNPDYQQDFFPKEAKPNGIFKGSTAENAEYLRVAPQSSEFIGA

In the case of `C=C(F)C(=O)Nc1cc2c(Nc3ccc(F)c(Cl)c3)ncnc2cc1OC1CCN(C)C1` (stereo in doubt) [Compound 64, (S)-N-[4-(3-chloro-4-fluoro-phenylamino)-7-(1-methyl-pyrrolidin-3-yloxy)-quinazolin-6-yl]-2-fluoro-acrylamide], the IC50 against EGFR tyrosine kinase is 4.5 nM; in the experiment on A431 cell, 3600 nM; in experiment [1] it was 2700 nM.
`COc1cc2ncnc(Nc3ccc(F)c(Cl)c3)c2cc1NC(=O)/C(F)=C/CN1CCCCC1` [Compound 8-1, (Z)—N-(4-((3-chloro-4-fluorophenyl)amino)-7-methoxyquinazolin-6-yl)-2-fluoro-4-(piperidin-1-yl)but-2-enamide] yielded an IC50 in experiment [1] of 1000 nM.
`COc1cc2ncnc(Nc3ccc(F)c(Cl)c3)c2cc1NC(=O)/C(F)=C\CN1CCCCC1` [Compound 8-2, (E)-N-(4-((3-chloro-4-fluorophenyl)amino)-7-methoxyquinazolin-6-yl)-2-fluoro-4-(piperidin-1-yl)but-2-enamide] gave an IC50 with A431 cell of 2100 nM.
The compound `CCOc1cc2ncnc(Nc3ccc(OCc4ccccn4)c(Cl)c3)c2cc1NC(=O)/C(F)=C/CN(C)C` [Compound 19-1, (Z)-N-(4-((3-chloro-4-(pyridin-2-ylmethoxy)phenyl)amino)-7-ethoxyquinazolin-6-yl)-4-(dimethylamino)-2-fluorobut-2-enamide] displayed an IC50 against EGFR tyrosine kinase of 0.57 nM.
In the case of `CCOc1cc2ncnc(Nc3ccc(OCc4ccccn4)c(Cl)c3)c2cc1NC(=O)/C(F)=C\CN(C)C` [Compound 19-2, (E)-N-(4-((3-chloro-4-(pyridin-2-ylmethoxy)phenyl)amino)-7-ethoxyquinazolin-6-yl)-4-(dimethylamino)-2-fluorobut-2-enamide], the IC50 on EGFR tyrosine kinase turned out to be 0.89 nM; in experiment [1], 1100 nM.
On to `O=C(Nc1cc2c(Nc3ccc(F)c(Cl)c3)ncnc2cc1O[C@H]1CCOC1)/C(F)=C/CN1CCOCC1` [Compound 20-1, (S,Z)-N-(4-((3-chloro-4-fluorophenyl)amino)-7-((tetrahydrofuran-3-yl)oxy)quinazolin-6-yl)-2-fluoro-4-morpholinobut-2-enamide], for which the IC50 was 12000 nM in the experiment on A431 cell and 4300 nM in experiment [1].
As to `O=C(Nc1cc2c(Nc3ccc(F)c(Cl)c3)ncnc2cc1O[C@H]1CCOC1)/C(F)=C\CN1CCOCC1` [Compound 20-2, (S,E)-N-(4-((3-chloro-4-fluorophenyl)amino)-7-((tetrahydrofuran-3-yl)oxy)quinazolin-6-yl)-2-fluoro-4-morpholinobut-2-enamide], the IC50 was above 100000 nM with A431 cell and 2300 nM in experiment [1].
For the compound `CN(C)C/C=C(\F)C(=O)Nc1cc2c(Nc3ccc(F)c(Cl)c3)ncnc2cc1O[C@H]1CCOC1` [Compound 21-1, (S,Z)-N-(4-((3-chloro-4-fluorophenyl)amino)-7-((tetrahydrofuran-3-yl)oxy)quinazolin-6-yl)-4-(dimethylamino)-2-fluorobut-2-enamide], the results for the IC50 (against EGFR tyrosine kinase; in the experiment with A431 cell; in experiment [1]) were 0.16 nM, 98000 nM and 1200 nM, respectively.
In the case of `CN(C)C/C=C(/F)C(=O)Nc1cc2c(Nc3ccc(F)c(Cl)c3)ncnc2cc1O[C@H]1CCOC1` [Compound 21-2, (S,E)-N-(4-((3-chloro-4-fluorophenyl)amino)-7-((tetrahydrofuran-3-yl)oxy)quinazolin-6-yl)-4-(dimethylamino)-2-fluorobut-2-enamide], the IC50 came to 0.31 nM at EGFR tyrosine kinase, 3100 nM in the experiment with A431 cell and 1500 nM in experiment [1].
On to `COc1cc2ncnc(Nc3ccc(F)c(Cl)c3)c2cc1NC(=O)/C(F)=C/CN1CCOCC1` [Compound 22-1, (Z)-N-(4-((3-chloro-4-fluorophenyl)amino)-7-methoxyquinazolin-6-yl)-2-fluoro-4-morpholinobut-2-enamide], for which the IC50 against EGFR tyrosine kinase was determined as 0.53 nM; in the experiment on A431 cell, 8100 nM; in experiment [1], 3700 nM.
For `COc1cc2ncnc(Nc3ccc(F)c(Cl)c3)c2cc1NC(=O)/C(F)=C\CN1CCOCC1` [Compound 22-2, (E)-N-(4-((3-chloro-4-fluorophenyl)amino)-7-methoxyquinazolin-6-yl)-2-fluoro-4-morpholinobut-2-enamide], the IC50 against EGFR tyrosine kinase came out at 0.3 nM; in the experiment on A431 cell, 2900 nM; in experiment [1], 2400 nM.
In the case of `C=C(F)C(=O)Nc1cc2c(Nc3ccc(Br)cc3F)ncnc2cc1OCCCN1CCOCC1` [Compound 23, N-[4-(4-Bromo-2-fluoro-phenylamino)-7-(3-morpholin-4-yl-propoxy)-quinazolin-6-yl]-2-fluoro-acrylamide], the IC50 against EGFR tyrosine kinase came to 1.6 nM; in the experiment with A431 cell, 1300 nM; in experiment [1], 3000 nM.
For `C=C(F)C(=O)Nc1cc2c(Nc3ccc(F)c(Cl)c3F)ncnc2cc1OCCCN1CCOCC1` [Compound 24, N-[4-(3-chloro-2,4-difluoro-phenylamino)-7-(3-morpholin-4-yl-propoxy)-quinazolin-6-yl]-2-fluoro-acrylamide], the IC50 at EGFR tyrosine kinase was found to be 0.19 nM; in the experiment with A431 cell it was 1300 nM; in experiment [1] it was 2200 nM.
Turning to `C#Cc1cccc(Nc2ncnc3cc(OCCCN4CCOCC4)c(NC(=O)C(=C)F)cc23)c1` [Compound 25, N-[4-(3-ethynyl-phenylamino)-7-(3-morpholin-4-yl-propoxy)-quinazolin-6-yl]-2-fluoro-acrylamide], the results for the IC50 (at EGFR tyrosine kinase; in the experiment on A431 cell; in experiment [1]) were 0.19 nM, 1200 nM and 1900 nM, respectively.
As for `C=C(F)C(=O)Nc1cc2c(Nc3cccc(Cl)c3F)ncnc2cc1OCCCN1CCOCC1` [Compound 26, N-[4-(3-chloro-2-fluoro-phenylamino)-7-(3-morpholin-4-yl-propoxy)-quinazolin-6-yl]-2-fluoro-acrylamide], the IC50 at EGFR tyrosine kinase stood at 0.35 nM; in the experiment on A431 cell it was 4500 nM; in experiment [1] it was 5400 nM.
On to `C=C(F)C(=O)Nc1cc2c(Nc3cc(OC)c(Cl)cc3Cl)ncnc2cc1OCCCN1CCOCC1` [Compound 27, N-[4-(2,4-dichloro-5-methoxy-phenylamino)-7-(3-morpholin-4-yl-propoxy)-quinazolin-6-yl]-2-fluoro-acrylamide], for which inhibition in experiment [1] was half-maximal at 2700 nM (IC50).
`C=C(F)C(=O)Nc1cc2c(Nc3cccc(Br)c3)ncnc2cc1OCCCN1CCOCC1` [Compound 28, N-[4-(3-bromo-phenylamino)-7-(3-morpholin-4-yl-propoxy)-quinazolin-6-yl]-2-fluoro-acrylamide]: the figures for the IC50 (against EGFR tyrosine kinase; with A431 cell; in experiment [1]) were 0.32 nM, 29000 nM and 1400 nM, respectively.
In the case of `C=C(F)C(=O)Nc1cc2c(Nc3ccc(OCc4cccc(F)c4)c(Cl)c3)ncnc2cc1OCCCN1CCOCC1` [Compound 29, N-[4-[3-chloro-4-(3-fluoro-benzyloxy)-phenylamino]-7-(3-morpholin-4-yl-propoxy)-quinazolin-6-yl]-2-fluoro-acrylamide], the IC50 against EGFR tyrosine kinase was 3.3 nM; in the experiment on A431 cell, 5900 nM; in experiment [1], 1900 nM.
Consider `C=C(F)C(=O)Nc1cc2c(Nc3ccc(Cl)c(Cl)c3F)ncnc2cc1OCCCN1CCOCC1` [Compound 30, N-[4-(3,4-dichloro-2-fluoro-phenylamino)-7-(3-morpholin-4-yl-propoxy)-quinazolin-6-yl]-2-fluoro-acrylamide], for which the values for the IC50 (against EGFR tyrosine kinase; in the experiment on A431 cell; in experiment [1]) were 0.22 nM, 520 nM and 1500 nM, respectively.
Consider `C=C(F)C(=O)Nc1cc2c(Nc3ccc(F)cc3F)ncnc2cc1OCCCN1CCOCC1` [Compound 31, N-[4-(2,4-difluoro-phenylamino)-7-(3-morpholin-4-yl-propoxy)-quinazolin-6-yl]-2-fluoro-acrylamide], for which the IC50 against EGFR tyrosine kinase is 1.4 nM; in the experiment with A431 cell, 6500 nM; in experiment [1], 6000 nM.
In the same order, the values of `C=C(F)C(=O)Nc1cc2c(Nc3ccc(F)c(F)c3F)ncnc2cc1OCCCN1CCOCC1` [Compound 32, N-[7-(3-morpholin-4-yl-propoxy)-4-(2,3,4-trifluoro-phenylamino)-quinazolin-6-yl]-2-fluoro-acrylamide] are 0.72 nM, 4200 nM and 5600 nM.
`C=C(Cl)C(=O)Nc1cc2c(Nc3ccc(F)c(Cl)c3)ncnc2cc1OCCCN1CCOCC1` [Compound 41, N-[4-(3-chloro-4-fluoro-phenylamino)-7-(3-morpholin-4-yl-propoxy)-quinazolin-6-yl]-2-chloro-acrylamide] had an IC50 at EGFR tyrosine kinase of 0.37 nM.
Consider `C=C(F)C(=O)Nc1cc2c(Nc3ccc(F)c(Cl)c3)ncnc2cc1OC1CCN(C)CC1` [Compound 49, N-[4-(3-chloro-4-fluoro-phenylamino)-7-(1-methyl-piperidin-4-yloxy)-quinazolin-6-yl]-2-fluoro-acrylamide], for which the figures for the concentration for half-maximal inhibition (IC50) (in the experiment with A431 cell; in experiment [1]) were 8600 nM and 5600 nM, respectively.

(Values after patent publication US9371292B2, “Quinazoline derivative, preparation method therefor, intermediate, composition and application thereof” (SHANGHAI PHARMACEUTICALS HOLDINGS CO., LTD., priority 2011, dated 2016).)
